Laboratory results: US9682931B2, “Aryloyl(oxy or amino)pentafluorosulfanylbenzene compound, pharmaceutically acceptable salt thereof, and prodrugs thereof” (UBE INDUSTRIES, LTD., priority 2013, dated 2017)
Converted amounts (≈) assume the structure as drawn. Structures can show the parent of a compound that is named as a salt. Where two headings read alike, the source gives them in different places.

Test system: K562 human leukemia-derived cell lines
Assay: K562 human leukemia cell-proliferation inhibition test
Assay type: cell-based
Conditions: Homo sapiens, K562, 72 h
Procedure: K562 Human Leukemia Cell-Proliferation Inhibition Test
A cell proliferation inhibition test using K562 cells was performed. The activity in the presence of a test substance was compared to the activity in the presence of green tea polyphenol (GTP). The materials used in the test are as follows.
Cells: K562 human leukemia-derived cell lines (DS Pharma Biomedical Co., Ltd.)
Control Substance: Green Tea Polyphenols, abbreviation: GTP (LKT Laboratories, Inc.)
Culture solution: 10% equine serum-supplemented RPMI1640 medium
A test substance and a control substance were used by dissolving each of them in DMSO. To a solution (0.99 mL) containing K562 cells in a cell concentration of 20,000 cells/mL, a test substance solution or a control substance solution (0.01 mL) was added and the cells were cultured. Seventy two hours later, a part of the cells was stained with trypan blue and viable cells were counted by a counting chamber.
In Table 2, “IC50” denotes the sample concentration inhibiting 50% of cell proliferation

[1] = K562 cells, 72 hours, viable cells counted with trypan blue, read-out: IC50

IC50 [1]	Structure (SMILES)	IC50
2.8 µg/mL (≈ 5.67 µM)	COc1cc(/C=C/C(=O)Nc2ccc(S(F)(F)(F)(F)F)cc2)cc(OC)c1OCC=C(C)C [Compound 43, 4-(4-(3-methyl-2-butenyloxy)-3,5-dimethoxycinnamoylamino)pentafluorosulfanylbenzene]	–
1.7 µg/mL (≈ 3.78 µM)	C/C=C/COc1ccc(/C=C/C(=O)Nc2ccc(S(F)(F)(F)(F)F)cc2)cc1OC [Compound 42, 4-(4-(2-butenyloxy)-3-methoxycinnamoylamino)pentafluorosulfanylbenzene]	–
5 µg/mL (≈ 11.8 µM)	O=C(Nc1ccc(S(F)(F)(F)(F)F)cc1)c1cc2cc(O)c(O)cc2oc1=O [Compound 74, 4-(6,7-dihydroxycoumarin-3-yl)carbonylaminopentafluorosulfanylbenzene]	–
14 µg/mL (≈ 35.2 µM)	O=C(/C=C/c1cc(O)c(O)c(O)c1)Nc1ccc(S(F)(F)(F)(F)F)cc1 [Compound 24, 4-(3,4,5-trihydroxycinnamoylamino)pentafluorosulfanylbenzene]	–
2 µg/mL (≈ 5.84 µM)	O=C(Nc1ccc(S(F)(F)(F)(F)F)cc1)c1ccnc(F)c1 [Compound 76, 4-(2-fluoropyridin-4-yl)carbonylaminopentafluorosulfanylbenzene]	–
2 µg/mL (≈ 5.84 µM)	O=C(Nc1ccc(S(F)(F)(F)(F)F)cc1)c1ccncc1F [Compound 75, 4-(3-fluoropyridin-4-yl)carbonylaminopentafluorosulfanylbenzene]	–
0.6 µg/mL (≈ 1.38 µM)	C=CCOc1ccc(/C=C/C(=O)Nc2ccc(S(F)(F)(F)(F)F)cc2)cc1OC [Compound 38, 4-(4-(2-propenyloxy)-3-methoxycinnamoylamino)pentafluorosulfanylbenzene]	–
0.1 µg/mL (≈ 0.271 µM)	COc1cc(C(=O)Nc2ccc(S(F)(F)(F)(F)F)cc2)ccc1N [Compound 60, 4-(4-amino-3-methoxybenzoylamino)pentafluorosulfanylbenzene]	–
1.5 µg/mL (≈ 4.61 µM)	O=C(Nc1ccc(S(F)(F)(F)(F)F)cc1)c1ncccn1 [Compound 70, 4-(pyrimidin-2-yl)carbonylaminopentafluorosulfanylbenzene]	–
0.28 µg/mL (≈ 0.708 µM)	COc1ccc(/C=C/C(=O)Nc2ccc(S(F)(F)(F)(F)F)cc2)cc1O [Compound 52, 4-(3-hydroxy-4-methoxycinnamoylamino)pentafluorosulfanylbenzene]	–
0.81 µg/mL (≈ 1.75 µM)	COc1ccc(/C=C/C(=O)Nc2ccc(S(F)(F)(F)(F)F)cc2)cc1OCC=C(C)C [Compound 41, 4-(3-(3-methyl-2-butenyloxy)-4-methoxycinnamoylamino)pentafluorosulfanylbenzene]	–
3.3 µg/mL (≈ 9.24 µM)	O=C(Nc1ccc(S(F)(F)(F)(F)F)cc1)c1ccc(O)c(F)c1 [Compound 57, 4-(4-hydroxy-3-fluorobenzoylamino)pentafluorosulfanylbenzene]	–
3.6 µg/mL (≈ 11.5 µM)	O=C(Nc1ccc(S(F)(F)(F)(F)F)cc1)c1cnco1 [Compound 82, 4-(oxazol-5-yl)carbonylaminopentafluorosulfanylbenzene]	–
4.2 µg/mL (≈ 12.3 µM)	O=C(Nc1ccc(S(F)(F)(F)(F)F)cc1)c1ncccc1O [Compound 68, 4-(3-hydroxypyridin-2-yl)carbonylaminopentafluorosulfanylbenzene]	–
4.9 µg/mL (≈ 15.7 µM)	O=C(Nc1ccc(S(F)(F)(F)(F)F)cc1)n1cccc1 [Compound 80, 4-(pyrrol-1-yl)carbonylaminopentafluorosulfanylbenzene]	–
8.5 µg/mL (≈ 22.8 µM)	O=C(Oc1cccc(S(F)(F)(F)(F)F)c1)c1cc(O)c(O)c(O)c1 [Compound 8, 3-(3,4,5-trihydroxybenzoyloxy)pentafluorosulfanylbenzene]	–
1.1 µg/mL (≈ 2.76 µM)	COc1cc(C(=O)Nc2ccc(S(F)(F)(F)(F)F)cc2)ccc1[N+](=O)[O-] [Compound 59, 4-(4-nitro-3-methoxybenzoylamino)pentafluorosulfanylbenzene]	–

IC50 [1]	Structure (SMILES)	IC50
5.3 µg/mL (≈ 14.8 µM)	O=C(Nc1ccc(S(F)(F)(F)(F)F)cc1)c1ccc(F)c(O)c1 [Compound 58, 4-(3-hydroxy-4-fluorobenzoylamino)pentafluorosulfanylbenzene]	–
–	O=C(/C=C/c1ccc2c(c1)OCO2)Nc1ccc(S(F)(F)(F)(F)F)cc1 [Compound 19, 4-(3,4-methylenedioxycinnamoylamino)pentafluorosulfanylbenzene]	0.66 µg/mL (≈ 1.68 µM)
–	C=CC(=O)Nc1ccc(S(F)(F)(F)(F)F)cc1 [Compound 31, 4-acryloylaminopentafluorosulfanylbenzene]	0.88 µg/mL (≈ 3.22 µM)
0.1 µg/mL (≈ 0.308 µM)	O=C(Nc1ccc(S(F)(F)(F)(F)F)cc1)c1ccncc1 [Compound 72, 4-(pyridin-4-yl)carbonylaminopentafluorosulfanylbenzene]	–
2.3 µg/mL (≈ 7.07 µM)	O=C(Nc1ccc(S(F)(F)(F)(F)F)cc1)c1ccncn1 [Compound 73, 4-(pyrimidin-4-yl)carbonylaminopentafluorosulfanylbenzene]	–
0.8 µg/mL (≈ 1.95 µM)	C=CCOc1ccc(C(=O)Nc2ccc(S(F)(F)(F)(F)F)cc2)cc1OC [Compound 28, 4-(4-(2-propenyloxy)-3-methoxybenzoylamino)pentafluorosulfanylbenzene]	–
–	Nc1ccc(C(=O)Nc2ccc(S(F)(F)(F)(F)F)cc2)cc1 [Compound 63, 4-(4-aminobenzoylamino)pentafluorosulfanylbenzene hydrochloride salt]	0.85 µg/mL
1.2 µg/mL (≈ 3.15 µM)	O=C(/C=C/c1ccc(O)cc1O)Nc1ccc(S(F)(F)(F)(F)F)cc1 [Compound 51, 4-(2,4-dihydroxycinnamoylamino)pentafluorosulfanylbenzene]	–
–	O=C(Nc1ccc(S(F)(F)(F)(F)F)cc1)c1ccccc1 [Compound 1, 4-benzoylaminopentafluorosulfanylbenzene]	1.5 µg/mL (≈ 4.64 µM)
0.51 µg/mL (≈ 1.38 µM)	COc1cc(C(=O)Nc2ccc(S(F)(F)(F)(F)F)cc2)ccc1O [Compound 45, 4-(4-hydroxy-3-methoxybenzoylamino)pentafluorosulfanylbenzene]	–
–	C=CC(=O)Nc1cccc(S(F)(F)(F)(F)F)c1 [Compound 32, 3-acryloylaminopentafluorosulfanylbenzene]	4.6 µg/mL (≈ 16.8 µM)
0.78 µg/mL (≈ 2.12 µM)	O=C(Nc1ccc(S(F)(F)(F)(F)F)cc1)c1ccc([N+](=O)[O-])cc1 [Compound 62, 4-(4-nitrobenzoylamino)pentafluorosulfanylbenzene]	–
4.1 µg/mL (≈ 11 µM)	O=C(Nc1ccc(S(F)(F)(F)(F)F)cc1)c1c(O)cc(O)cc1O [Compound 23, 4-(2,4,6-trihydroxybenzoylamino)pentafluorosulfanylbenzene]	–
3.4 µg/mL (≈ 10.9 µM)	O=C(Nc1ccc(S(F)(F)(F)(F)F)cc1)c1ncc[nH]1 [Compound 78, 4-(imidazol-2-yl)carbonylaminopentafluorosulfanylbenzene]	–
4.2 µg/mL (≈ 12.9 µM)	O=C(Nc1ccc(S(F)(F)(F)(F)F)cc1)c1cnccn1 [Compound 79, 4-(pyrazin-2-yl)carbonylaminopentafluorosulfanylbenzene]	–
2.5 µg/mL (≈ 5.74 µM)	C=CCc1cc(/C=C/C(=O)Nc2ccc(S(F)(F)(F)(F)F)cc2)cc(OC)c1O [Compound 46, 4-(4-hydroxy-5-(2-propenyl)-3-methoxycinnamoylamino)pentafluorosulfanylbenzene]	–
2 µg/mL (≈ 5.86 µM)	O=C(Nc1ccc(S(F)(F)(F)(F)F)cc1)c1cc(O)ncn1 [Compound 69, 4-(4-hydroxypyrimidin-6-yl)carbonylaminopentafluorosulfanylbenzene]	–

Structure (SMILES)	IC50 [1]	IC50
Nc1ccc(C(=O)Nc2ccc(S(F)(F)(F)(F)F)cc2)cc1 [Compound 61, 4-(4-aminobenzoylamino)pentafluorosulfanylbenzene]	0.086 µg/mL (≈ 0.254 µM)	–
